Patent US8163509B2, “Biological markers predictive of anti-cancer response to insulin-like growth factor-1 receptor kinase inhibitors” (The Regents of the University of Colorado, A Body Corporate, priority 2008, dated 2012)
Where two headings read alike, the source gives them in different places.

Key:
[1] = system: HCT116 CRC cell line; assay: SRB proliferation assay, 72 h; type: cell-based, human; conditions: for IC50: Homo sapiens, HCT-116
Method: Cell proliferation was evaluated by SRB following exposure to OSI-906 for 72 hours. Cells were plated at an optimized density in 96-well plates, incubated overnight at 37° C., and then exposed to a serial dilution of OSI-906. After 72 hours incubation, cells were fixed with trichloroacetic acid and an SRB was performed as described in materials and methods.
(§1) Cell Lines and Culture. […] human colon cancer cell lines, were obtained from American Type Culture Collection (Manassas, Va.). Cells were grown in RPMI medium supplemented with 10% fetal bovine serum, 1% non-essential amino acids, 1% penicillin/streptomycin and were maintained at 37° C. in an incubator under an atmosphere containing 5% CO2. The cells were routinely screened for the presence of mycoplasma (MycoAlert, Cambrex Bio Science, Baltimore, Md.) and were exposed to PQIP when they reached approximately 70% confluence.
Multiple clones from the same transfection were pooled and grown under puromycin selection.
Cytotoxicity and Combination Effects: HT29, HCT116, RKO, and LS513 CRC cell lines were exposed to 0-10 nM SN-38 (7-Ethyl-10-hydroxy-camptothecin), 0-10 μM Oxaliplatin, or 0-50 μM 5-Fluorouracil (5-FU) for 72 hours. HT29, HCT116, RKO, and LS513 CRC cell lines were exposed to PQIP in combination with SN-38, Oxaliplatin or 5-FU. In all combinations, cells were seeded in 96-well flat bottomed plates and left overnight. PQIP and chemotherapy were both added for 72 hours. The results of the combinations were analyzed by the Chou and Talalay method with Calcusyn (Biosoft, Ferguson, Mo.).
(§2) The CRC cell lines were treated with a range of concentrations of PQIP (from 0.05-5 μM) for 72 hours.
To characterize the potential functionality that the selected genes may play in the sensitivity or resistance to PQIP, resistant and sensitive CRC cell lines were stably transfected with specific shRNA, treated with increasing concentrations of PQIP and proliferation assays performed to observe, if when manipulated, these genes alter responsiveness (i.e. the S or R phenotype). […] Both of these transfected cell lines were assayed for proliferation as described above.
Therefore, we investigated the effect of PQIP in combination with standard chemotherapy for CRC. […] Cells were exposed to PQIP and chemotherapy (SN38, oxaliplatin, or 5-Fluorouracil) concurrently for 72 h and combinations were assessed using the SRB assay.
Cell Lines and Culture: Twenty-seven human colon cancer cell lines, were obtained from American Type Culture Collection (Manassas, Va.). The GEO cells were a generous gift from Dr. Fortunato Ciardiello (Cattedra di Oncologia Medica, Dipartimento Medico-Chirurgico di Internistica Clinica e Sperimentale “F Magrassi e A Lanzara,” Seconda Università degli Studi di Napoli, Naples). All cells except GEO were grown in RPMI medium supplemented with 10% fetal bovine serum, 1% non-essential amino acids, 1% penicillin/streptomycin and were maintained at 37° C. in an incubator under an atmosphere containing 5% CO2.

[2] = system: human tumor explants; assay: In vivo growth study, primary CRC xenografts (human tumor explants); set-up: species or system athymic nude mice; conditions: OSI-906 40 mg/kg, 28 days
Method: In vivo Growth Studies: Five to six-week-old female athymic nude mice (Harlan Sprague Dawley) were used. The research protocol was approved by the University of Colorado Denver, Animal Care and Use Committee. Mice were caged in groups of five and kept on 12-h light/dark cycle and provided with sterilized food and water ad libitum. All of the studies were conducted in accordance with the NIH guidelines for the care and use of laboratory animals, and animals were housed in a facility accredited by the American Association for Accreditation of Laboratory Animal Care. Animals were allowed to acclimate for at least 7 days before any handling.
The primary CRC xenografts were generated according to published methodology (Rubio-Viqueira B, et al. Clin Cancer Res 2006; 12(15):4652-61.). Briefly, surgical specimens of patients operated at the University of Colorado Hospital were reimplanted s.c. to 5 mice for each patient. […] Mice were monitored daily for signs of toxicity and were weighed twice weekly. Tumor size was evaluated two times per week by caliper measurements using the following formula: tumor volume=[length×width^2][…]. Relative tumor growth index was calculated by relative tumor growth of treated mice divided by relative tumor growth of control mice since the initiation of therapy (T/C). […]

[3] = system: Colo320 CRC cell line; assay: SRB proliferation assay, 72 h; type: cell-based; conditions: Homo sapiens, COLO 320, 0.05-5 μM, read-out: IC50, growth inhibition by PQIP (SRB)
Method: as §1, §2

[4] = target: T1, IGF1R (Homo sapiens, UniProt P08069); assay: Meso Scale Discovery (MSD) assay of phosphorylated IGF1R; type: cell-based; conditions: HT29 and HCT116, 72 h
T1 construct: endogenous in cells; host or cells: HT29 and HCT116 CRC cell lines
T1 sequence (P08069 31-1367): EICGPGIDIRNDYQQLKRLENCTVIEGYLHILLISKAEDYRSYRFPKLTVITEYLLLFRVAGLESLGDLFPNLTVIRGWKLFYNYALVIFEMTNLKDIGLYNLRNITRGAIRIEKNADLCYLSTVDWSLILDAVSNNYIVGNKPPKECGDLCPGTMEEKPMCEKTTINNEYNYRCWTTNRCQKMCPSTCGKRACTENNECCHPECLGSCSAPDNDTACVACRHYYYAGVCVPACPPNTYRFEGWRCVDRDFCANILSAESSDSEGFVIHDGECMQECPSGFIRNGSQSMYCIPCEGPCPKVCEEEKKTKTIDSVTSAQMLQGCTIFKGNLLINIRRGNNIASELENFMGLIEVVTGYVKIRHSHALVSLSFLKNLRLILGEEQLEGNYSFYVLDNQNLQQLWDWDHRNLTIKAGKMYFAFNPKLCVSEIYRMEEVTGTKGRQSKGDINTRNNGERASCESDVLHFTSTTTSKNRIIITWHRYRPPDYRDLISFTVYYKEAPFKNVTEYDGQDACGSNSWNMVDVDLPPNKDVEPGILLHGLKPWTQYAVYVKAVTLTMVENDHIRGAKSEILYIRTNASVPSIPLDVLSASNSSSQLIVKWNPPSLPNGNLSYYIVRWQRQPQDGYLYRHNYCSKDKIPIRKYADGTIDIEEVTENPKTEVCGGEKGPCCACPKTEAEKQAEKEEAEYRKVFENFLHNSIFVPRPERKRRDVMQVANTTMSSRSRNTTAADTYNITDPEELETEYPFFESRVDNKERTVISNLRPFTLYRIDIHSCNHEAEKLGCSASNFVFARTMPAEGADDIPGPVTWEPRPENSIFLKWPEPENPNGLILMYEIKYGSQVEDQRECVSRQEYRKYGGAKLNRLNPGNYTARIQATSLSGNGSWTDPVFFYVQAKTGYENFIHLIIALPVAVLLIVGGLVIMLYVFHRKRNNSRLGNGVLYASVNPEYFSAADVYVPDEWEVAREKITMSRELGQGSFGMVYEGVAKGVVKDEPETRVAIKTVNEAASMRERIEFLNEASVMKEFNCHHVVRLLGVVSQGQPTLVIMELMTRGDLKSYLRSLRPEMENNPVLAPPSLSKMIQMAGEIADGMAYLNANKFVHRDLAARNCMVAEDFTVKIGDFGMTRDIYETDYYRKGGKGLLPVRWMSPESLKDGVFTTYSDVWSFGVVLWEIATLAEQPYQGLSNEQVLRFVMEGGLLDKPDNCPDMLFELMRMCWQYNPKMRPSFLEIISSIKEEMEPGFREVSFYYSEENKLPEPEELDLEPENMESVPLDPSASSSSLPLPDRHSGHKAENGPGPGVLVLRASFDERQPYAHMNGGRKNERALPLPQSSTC
Method: Detection of IGF1R using Meso Scale Discovery assays (MSD): HT29 and HCT116 CRC cell lines were seeded into 6-well plates, allowed to attach for 24 hours and exposed to PQIP and chemotherapy (SN38, or Oxaliplatin) alone or in combination for 72 h. Following exposure, cells were rinsed with PBS and scraped into RIPA lysis buffer containing protease inhibitors, EDTA, NaF, and sodium orthovanadate. Total protein was quantified using the BioRad Dc Protein Assay (BioRad, Hercules, Calif.). Fifty micrograms of protein in 25 μL was added per well for MSD detection of phosphorylated IGF-1R according to manufacturer's instructions (Meso Scale Discovery, Gaithersburg, Md.).
Cells were exposed to PQIP (0.4 μmol/L) and chemotherapy (SN38 0.004 μmol/L, or Oxaliplatin 1.0 μmol/L) alone or in combination for 72 h. Protein was extracted and analyzed for phospho/total IGF1R levels using a Meso Scale Discovery (MSD; Gaithersburg, Md. 20877) assay.

IC50 ([1]; HCT116, 72 hours, read-out: IC50, proliferation, OSI-906 (SRB)) [µM]	IC50 ([1]; HCT116, read-out: S/I/R to OSI-906) [µM]	IC50 ([1]; HCT116 stably transfected with MT2A shRNA, read-out: IC50, proliferation, OSI-906 (SRB) after MT2A shRNA knockdown) [µM]	IC50 [3] [µM]	IC50 ([1]; HCT116, 72 hours, 0.05-5 μM, read-out: IC50, growth inhibition by PQIP (SRB)) [µM]	effect on phosphorylated IGF1R, PQIP in combination with SN38 or Oxaliplatin ([4]; PQIP 0.4 μmol/L plus SN38 0.004 μmol/L or Oxaliplatin 1.0 μmol/L)	effect on phosphorylated IGF1R, agent alone ([4]; PQIP 0.4 μmol/L, SN38 0.004 μmol/L, Oxaliplatin 1.0 μmol/L)	Compound	TGI (relative tumor growth index, T/C) ([2]; three explants predicted as resistant)	TGI (relative tumor growth index, T/C) ([2]; two explants predicted as sensitive)	combination index (CI) values, PQIP and chemotherapy ([1]; HCT116, PQIP with SN38, oxaliplatin or 5-Fluorouracil concurrently 72 h, nearly all combinations, Chou and Talalay)	shift in sensitivity to PQIP after shRNA knockdown ([1]; HCT116 transfected with MT2A shRNA vs parental or scramble shRNA control)	shift in sensitivity to PQIP after shRNA knockdown ([1]; HCT116 transfected with caldesmon shRNA vs parental or scramble shRNA control)
> 5	> 5	5					C[C@]1(O)C[C@@H](c2nc(-c3ccc4ccc(-c5ccccc5)nc4c3)c3c(N)nccn32)C1 [OSI-906, cis-3-[8-amino-1-(2-phenyl-quinolin-7-yl)-imidazo[1,5-a]pyrazin-3-yl]-1-methyl-cyclobutanol]	130-200%	21-28%			
			< 0.5	> 5	inhibited	inhibited	CN1CCN([C@H]2C[C@@H](c3nc(-c4ccc5ccc(-c6ccccc6)nc5c4)c4c(N)nccn43)C2)CC1 [PQIP, cis-3-[3-(4-Methyl-piperazin-1-yl)-cyclobutyl]1-(2-phenyl-quinolin-7-yl)-imidazo[1,5-a]pyrazin-8-ylamine]			0.6-1.4	left shift in sensitivity	no left shift in sensitivity
